We go through 3 compounds from patent US9468627B2, “Slow-release formulations of 5-hydroxytryptophan as an adjunct to pro-serotonergic therapies” (Duke University, priority 2010, dated 2016).

What is called Tmax is the time from dosing to the highest level.

Data set [1] is described as follows: Side-effect and toxicity observation (body weight, drinking, diarrhea, 5-HT syndrome-like behaviors).
Method: Tph2 R439H mice (˜25 g) were treated for >3 wks with a saturating dose of FLX (155 mg/L drinking water, ˜20 mg/kg/day). Thereafter Alzet 2001 minipumps (1 μl delivered/hr) containing a 5-HTP solution (100 mg/ml, ˜100 mg/kg/day) or only vehicle was implanted using isoflurane anesthesia, allowing for swift awakening, and the mice monitored for signs of 5-HT syndrome hourly for 8 hrs and at 24 hrs. Splaying (0=absent, 1=present, 2=severe), head twitch (#/min) and signs of hyperventilation (0=absent, 1=present, 2=severe) was scored. Body weights—a general index of toxicity—were followed for 2 days prior to and 5 days after pump implantation.
METHODS: Mice on >2 w FLX (155 mg/L water, ˜20 mg/kg/d) were implanted with Alzet 2001 minipumps with vehicle (50% DMSO) or 100 mg/ml 5-HTP yielding a hourly (daily) dose of ˜4.2(100 mg)/kg for a ˜25 g mouse. Side-effect parameters were assessed between 30 min and 8 h following pump implantation under brief isoflurane anesthesia (day 1) and then daily (day 2-4). […] Diarrhea: Mice where placed individually in a cage with filter paper and the diarrhea level scored, 0-3. Tremor and splaying: Scored in home cage from 5 min videos. Temperature: Recorded by digital rectal temperature probe in lightly restrained mice. […] Statistics: Genotypes were analyses separately, with 2way RM-ANOVA or t-test as appropriate, and in the former case followed by Bonferroni post-hoc test.
Side-effects were assessed after the AM dose, day 1-4. Diarrhea: Mice were placed individually in a cage with filter paper and the diarrhea level scored, 0-3, 0-15 min after injection. Tremor, splaying and head-twitch: Scored in home cage from 5 min videos, 25-30 min after injection. Temperature: Recorded by digital rectal temperature probe in lightly restrained mice 30 min after injection. […] Statistics: Genotypes were analyzed separately, with 2way RM-ANOVA or t-test where appropriate, and in the former case followed by Bonferroni post-hoc test.
METHODS: 5-HTP (2 mg/L) was dissolved in (1 mg/L) saccharin-H2O, administered in blackened bottles and changed twice weekly. […] Body weights and drinking per cage was followed throughout and 5-HTP consumed estimated here from.
The test system of data set [2] is extracellular serotonin (5-HTExt). The data set can be described thus: 5-HT microdialysis (5-HTExt). The class given is in vivo, mice. The method, then:
Mice were anesthetized by ketamine/xylazine (100 and 10 mg kg^−1, respectively, in saline, i.p) and a guide cannula (CMA7, CMA Microdialysis, Chelmsford, Mass., USA) was stereotactically implanted into the frontal cortex (AP: 2.3 mm, ML: 0.3 mm, DV: 0.7 mm), hippocampus (AP: −3.3 mm, ML: 3.0 mm, DV: 1.5 mm) or lateral ventricle (AP: 0.3 mm; ML: 0.9 mm; DV: 2.0 mm) according to the atlas by Franklin and Paxinos (see, e.g., Franklin, K. and Paxinos, G. The Mouse Brain in Stereotaxic Coordinates. Academic Press: San Diego, 1997) and fixed in place with two anchor screws (CMA) and carboxylate dental cement (CMA). Operated mice were singly housed, treated with antibiotics (1.2 mg sulfamethoxazole ml^−1 and 0.24 mg trimethoprim ml^−1) in the drinking water and allowed to recover 48-96 h post-surgery.
The microdialysis probe was inserted into the guide cannula approximately 16 h before the start of sample collection to allow for the stabilization of 5-HTExt levels. […] Dialysates were analyzed off-line by high-performance liquid chromatography-electrochemical detection (HPLC-EC) for 5-HT, 5-HIAA, 3,4-dihydroxyphenylacetic acid and homovanillic acid, or by the SymDAQ HPLC-tandem-mass spectrometry technology for simultaneous determination of monoamines and amino acids.
METHODS: 5-HT Microdialysis 5-HTP SR. […] 5-HTExt in dialysates was determined by HPLC-EC. […]

For data set [3] the following is noted: cited from earlier work.
The conditions of data set [4]: Shindo et al. 1977; cited from earlier work.
For data set [5] the following is noted: immediate-release oral 5-HTP; cited from earlier work.
Data set [6] in a line: HPLC pilot stability of 5-HTP in water. The class given is physicochemical. The following applies: H2O at RT, HPLC pilot experiments.

“Also recorded” adds a separate entry of the source.

As to `CNCCC(Oc1ccc(C(F)(F)F)cc1)c1ccccc1` (stereo not shown) [FLX, fluoxetine], the “effect of FLX on 5-HTP-induced diarrhea (peri-rectal fecal smearing)” value in data set [1] (FLX ≈18 mg/kg/day, 5-HTP bolus 80 mg/kg i.p., not rigorously tested) is “seems to decrease diarrhea induced by 5-HTP; also recorded: appeared to lessen 5-HTP-induced diarrhea”. Further, the “5-HTExt response to chronic FLX” value in data set [2] (wild-type mice, FLX ≈18 mg/kg/day) is reported as “robust increase”.

For `N[C@@H](Cc1c[nH]c2ccc(O)cc12)C(=O)O` [5-HTP, 5-hydroxytryptophan], the “antidepressant effect (HAMD) at endpoint” value in data set [3] (Alino et al.: 30 inpatients, nialamid 300 mg + 5-HTP 300 mg, two weeks, double-blind) is listed as “significantly better than nialamide alone”. Also, the “antidepressant effect (HAMD) versus clomipramine + placebo” value in data set [3] (Nardini et al.: 26 inpatients, clomipramine 50 mg + 5-HTP 300 mg, four weeks, double-blind) was 5-HTP enhanced clomipramines effect. The “patients going into remission” value in data set [3] (van Hiele: 99 chronic treatment resistant out-patients, mostly on TCAs, add-on 5-HTP ~200 mg + carbidopa, open label) was “Forty-three”. Also, in data set [3] (van Hiele: add-on 5-HTP ~200 mg + carbidopa, severity greatly decreased with enteric coated capsules), the side effects entry is “nausea, vomiting and diarrhea”. Also, in data set [3] (van Praag: 7 chronic treatment resistant out-patients, clomipramine 50 mg + 5-HTP ~2-400 mg + PDI MK 486), the patients improved entry is “Four”. Also, in data set [4], the “first-pass metabolism in the intestine” value is about 50%. The drinking result is “Decreased drinking” in data set [1] (5-HTP 2 mg/ml and 4 mg/ml in drinking water); “inhibited drinking” in data set [1] (higher 5-HTP concentrations in drinking water, in pilots). Besides, the body weight result in data set [1] (5-HTP 4 mg/ml in drinking water) was “Body weight decrease”. Further, the 5-HT syndrome-like behavior entry in data set [1] (acute 5-HTP bolus 80 mg/kg i.p., add-on to existing FLX ≈18 mg/kg/day) is on record as “resulted in 5-HT syndrome-like behavior; also recorded: causes 5-HT syndrome; also recorded: Serotonin syndrome-like behavior was observed”. For the same compound, the “diarrhea, malaise, gastrointestinal side effects” value was “caused gastrointestinal side effects; also recorded: caused diarrhea and obvious malaise” in data set [1] (bolus injection 5-HTP 120 mg/kg i.p.); “No diarrhea and no obvious malaise; also recorded: did not result in gastrointestinal side effects” in data set [1] (continuous 5-HTP in drinking water 4 mg/ml). The “toxicity (weights, head twitches, diarrhea)” value in data set [1] (oral 5-HTP ≈200 mg/kg/day, no carbidopa, add-on to existing fluoxetine ≈18 mg/kg/day) is “No indication of toxicity; also recorded: not toxic and does not result in side effects”. For the same compound, in data set [5], the T1/2 was 2 to 3 h. The Tmax in data set [5] was 1 to 2 h. Further, the “stability in H2O” value in data set [6] is “stable for weeks”.

As for `CCCN(CCC)C1CCc2cccc(O)c2C1` (stereo not shown) [8-OH-DPAT], in data set [2] (8-OH-DPAT 1 mg/kg i.p.), the “decrease of 5-HTExt” value is given as “approximately 50%”.
